In patent US9561220B2, “Group of alkaloids, the novel autophagic enhancers for treatment of cancers and neurodegenerative conditions thereof” (Macau University of Science and Technology, priority 2014, dated 2017) one finds IC50 data, which are given here for one molecule.

A word on the pIC50: it is the IC50 on a negative log10 scale, so that one unit is a factor of ten.

The test has as its system panel of human cancer cells (HeLa, MCF-7, HepG2, Hep3B, H1299, A549, PC3). The test is described as follows: cells. The test is classed as cell-based. Conditions: Homo sapiens, 72 h, read-out: mean IC50 value (cell cytotoxicity). The protocol:
The test compounds of liensinine, isoliensinine, dauricine, cepharanthine, hernandezine and thalidezine were dissolved in DMSO at a final concentration of 100 mmol/L and stored at −20° C. Cytotoxicity was assessed using the 3-(4,5-dimethylthiazol-2-yl)-2,5-diphenyltetrazolium bromide assay as described previously. 4000-8000 HeLa (human cervical cancer), MCF-7 (human breast cancer), HepG2 (human liver cancer), Hep3B (human liver cancer), H1299 (human lung cancer), A549 (human lung cancer), PC3 (human prostate cancer) and LO2 (human normal liver) cells were seeded on 96-well plates per well. After overnight pre-incubation, the cells were exposed to different concentrations of liensinine, isoliensinine, dauricine, cepharanthine, hernandezine and thalidezine (0.039-100 μmol/L) for 3 days. Specifically, the following concentrations are used for all of the above alkaloids: […], 0.039 μmol/L. Subsequently, 10 μL of MTT reagents was added to each well and incubated at 37° C. for 4 hours followed by the addition of 100 μL solubilization buffer (10% SDS in 0.01 mol/L HCl) and overnight incubation. Absorbance at 585 nm was determined from each well on the following day. The percentage of cell viability was calculated using the following formula: Cell viability (%)=Cells number treated/Cells number DMSO control×100. Data was obtained from three independent experiments.

pIC50: −log10 of the molar value.

In the case of `COc1ccc2cc1Oc1ccc(cc1)C[C@H]1c3c(cc4c(c3Oc3cc5c(cc3OC)CCN(C)[C@@H]5C2)OCO4)CCN1C` [cepharanthine], the negative logarithm of the IC50 (pIC50) was 4.21 to 5.34.
